In the assay the target is ACL (Homo sapiens (Human), UniProt P53396). Kind of assay: ADP-Glo Assay.

A word on the IC50: it is the concentration that inhibits the measured activity by half.

ACL, sequence (P53396 other isoform, or with tags, fused parts or gaps isoform P53396-2): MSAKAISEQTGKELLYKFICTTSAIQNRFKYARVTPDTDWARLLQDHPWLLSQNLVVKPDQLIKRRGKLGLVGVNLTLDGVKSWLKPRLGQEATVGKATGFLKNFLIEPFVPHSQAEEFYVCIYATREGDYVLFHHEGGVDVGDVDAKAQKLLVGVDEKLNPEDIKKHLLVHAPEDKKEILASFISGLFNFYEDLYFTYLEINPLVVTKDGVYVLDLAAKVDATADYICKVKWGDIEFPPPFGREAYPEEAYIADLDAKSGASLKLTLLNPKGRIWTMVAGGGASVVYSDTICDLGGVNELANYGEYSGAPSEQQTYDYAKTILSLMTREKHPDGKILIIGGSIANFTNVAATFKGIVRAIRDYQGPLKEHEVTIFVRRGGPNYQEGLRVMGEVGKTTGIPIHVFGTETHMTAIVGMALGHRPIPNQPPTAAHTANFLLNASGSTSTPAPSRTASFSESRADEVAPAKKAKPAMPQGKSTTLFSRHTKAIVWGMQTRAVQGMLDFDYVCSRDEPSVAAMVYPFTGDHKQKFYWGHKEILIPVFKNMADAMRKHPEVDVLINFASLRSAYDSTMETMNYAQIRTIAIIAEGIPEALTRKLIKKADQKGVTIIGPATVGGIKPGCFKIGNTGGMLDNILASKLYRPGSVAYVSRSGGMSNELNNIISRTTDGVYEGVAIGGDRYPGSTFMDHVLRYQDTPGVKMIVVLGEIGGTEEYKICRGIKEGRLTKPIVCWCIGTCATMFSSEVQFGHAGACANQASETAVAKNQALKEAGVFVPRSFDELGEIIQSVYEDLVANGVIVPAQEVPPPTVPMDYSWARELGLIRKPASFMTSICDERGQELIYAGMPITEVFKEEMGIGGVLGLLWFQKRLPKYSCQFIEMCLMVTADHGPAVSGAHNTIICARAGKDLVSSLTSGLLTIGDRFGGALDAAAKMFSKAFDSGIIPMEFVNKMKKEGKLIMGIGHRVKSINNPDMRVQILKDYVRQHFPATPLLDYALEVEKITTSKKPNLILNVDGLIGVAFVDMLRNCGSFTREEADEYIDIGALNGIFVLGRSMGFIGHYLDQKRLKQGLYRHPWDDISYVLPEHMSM

The molecule `COc1ccc(-c2ccccc2)cc1NS(=O)(=O)c1cc(Cl)cc(C(=O)O)c1O` [I-3, 5-chloro-2-hydroxy-3-(N-(4-methoxy-[1,1′-biphenyl]-3-yl)sulfamoyl)benzoic Acid] returned an IC50 of 0.5 to 20 µM. Molecule `COc1ccc(Br)cc1NS(=O)(=O)c1cc(Cl)cc(Cl)c1O` [I-4, N-(5-bromo-2-methoxyphenyl)-3,5-dichloro-2-Hydroxybenzenesulfonamide] yielded an IC50 of 0.5 to 20 µM. To `COc1ccc(-c2ccc(OC)c(NS(=O)(=O)c3cc(Cl)cc(Cl)c3O)c2)cc1` [I-5, 3,5-dichloro-N-(4,4′-dimethoxy-[1,1′-biphenyl]-3-yl)-2-hydroxybenzenesulfonamide] belongs 0.5 to 20 µM; to `COc1ccc(NC(=O)C2CC2)cc1NS(=O)(=O)c1cc(Cl)cc(Cl)c1O` [I-8, N-(3-((3,5-dichloro-2-hydroxyphenyl)sulfonamido)-4-methoxyphenyl) cyclopropanecarboxamide], 0.5 to 20 µM; to `COc1ccc(N2CCCCC2)cc1NS(=O)(=O)c1cc(Cl)cc(Cl)c1O` [I-10, 3,5-dichloro-2-hydroxy-N-(2-methoxy-5-(piperidin-1-yl)phenyl)benzenesulfonamide], 0.5 to 20 µM. As for `COc1cccc(-c2ccccc2)c1NS(=O)(=O)c1cc(Cl)cc(Cl)c1O` [I-14, 3,5-dichloro-2-hydroxy-N-(3-methoxy-[1,1′-biphenyl]-2-yl)benzenesulfonamide], the figure is 0.5 to 20 µM; as for `COc1ccc(-c2ccccc2)cc1N(C)S(=O)(=O)c1cc(Cl)cc(Cl)c1O` [I-17, 3,5-dichloro-2-hydroxy-N-(4-methoxy-[1,1′-biphenyl]-3-yl)-N-methylbenzenesulfonamide], 0.5 to 20 µM; as for `COc1ccc(-c2ccccc2)cc1NC(=O)c1cc(Cl)cc(Cl)c1O` [I-18, 3,5-dichloro-2-hydroxy-N-(4-methoxy-[1,1′-biphenyl]-3-yl)benzamide], 0.5 to 20 µM. In turn, `O=S(=O)(Nc1cc(-c2ccccc2)ccc1O)c1cccc(-c2nn[nH]n2)c1` [I-25, N-(2-hydroxy-5-phenylphenyl)-3-(2H-1,2,3,4-tetrazol-5-yl) benzene-1-sulfonamide] had an IC50 of 0.5 to 20 µM. Molecule `O=C(Nc1cc(-c2ccccc2)ccc1F)c1cc(Cl)cc(Cl)c1O` [I-27, 3,5-dichloro-N-(4-fluoro-[1,1′-biphenyl]-3-yl)-2-hydroxybenzamide] displayed an IC50 of 0.5 to 20 µM.

Turning to `O=S(=O)(Nc1cc(-c2ccccc2)ccc1F)c1cc(Cl)ccc1O` [I-30, 5-chloro-N-(2-fluoro-5-phenylphenyl)-2-hydroxybenzene-1-sulfonamide], the IC50 fell in the range of 0.5 to 20 µM. In the case of `O=S(=O)(Nc1cc(-c2ccccc2)ccc1F)c1ccccc1O` [I-35, N-(2-fluoro-5-phenylphenyl)-2-hydroxybenzene-1-sulfonamide], the IC50 was 0.5 to 20 µM. To `O=S(=O)(Nc1cc(-c2ccccc2)ccc1F)c1cccc(-c2nn[nH]n2)c1` [I-37, N-(2-fluoro-5-phenylphenyl)-3-(2H-1,2,3,4-tetrazol-5-yl) benzene-1-sulfonamide] belongs 0.5 to 20 µM. As for `COc1ccc(-c2ccccc2)cc1NS(=O)(=O)c1cc(Cl)cc(-c2nn[nH]n2)c1` [I-38, 3-chloro-N-(2-methoxy-5-phenylphenyl)-5-(2H-1,2,3,4-tetrazol-5-yl)benzene-1-sulfonamide], the figure is 0.5 to 20 µM. To `COc1ccc(-c2ccccc2)cc1NS(=O)(=O)c1cc(C(=O)O)cc(Cl)c1OC` [I-39, 3-chloro-4-methoxy-5-(N-(4-methoxy-[1,1′-biphenyl]-3-yl)sulfamoyl)benzoic Acid] belongs 0.5 to 20 µM. `COc1ccc(-c2ccccc2)cc1NS(=O)(=O)c1cc(F)cc(F)c1O` [I-40, 3,5-difluoro-2-hydroxy-N-(2-methoxy-5-phenylphenyl) benzene-1-sulfonamide] displayed an IC50 of 0.5 to 20 µM.

In turn, `COC(=O)c1cc(Cl)c(OC)c(S(=O)(=O)Nc2cc(-c3cccnc3)ccc2OC)c1` [I-42, Methyl 3-chloro-4-methoxy-5-(N-(2-methoxy-5-(pyridine-3-yl)phenyl)sulfamoyl)benzoate] had an IC50 of 0.5 to 20 µM.

Turning to `COC(=O)c1ccc(F)c(NS(=O)(=O)c2cc(Cl)cc(Cl)c2O)c1` [I-43, Methyl 3-((3,5-dichloro-2-hydroxyphenyl)sulfonamido)-4-fluorobenzoate], the IC50 fell in the range of 0.5 to 20 µM.

`COc1ccc(-c2ccccc2)cc1NS(=O)(=O)c1cc(Cl)c(O)c(Br)c1` [I-44, 3-bromo-5-chloro-4-hydroxy-N-(2-methoxy-5-phenylphenyl)benzene-1-sulfonamide] displayed an IC50 of 0.5 to 20 µM. As for `O=C(NO)c1ccc(F)c(NS(=O)(=O)c2cc(Cl)cc(Cl)c2O)c1` [I-45, 3-[(3,5-dichloro-2-hydroxybenzene)sulfonamido]-4-fluoro-N-hydroxybenzamide], the figure is 0.5 to 20 µM; as for `COc1c(Cl)cc(C#N)cc1S(=O)(=O)Nc1cc(-c2ccccc2)ccc1F` [I-51, 3-chloro-5-cyano-N-(4-fluoro-[1,1′-biphenyl]-3-yl)-2-methoxybenzenesulfonamide], 0.5 to 20 µM; as for `COC(=O)c1cc(Cl)c(OC)c(S(=O)(=O)Nc2cc(-c3cccs3)ccc2F)c1` [I-52, Methyl 3-chloro-5-(N-(2-fluoro-5-(thiophen-2-yl)phenyl)sulfamoyl)-4-methoxybenzoate], 0.5 to 20 µM.

Molecule `O=S(=O)(Nc1cc(-c2ccccc2)ccc1F)c1cc(Cl)c(O)cc1O` [I-54, 5-chloro-N-(2-fluoro-5-phenylphenyl)-2,4-dihydroxybenzene-1-sulfonamide] returned an IC50 of 0.5 to 20 µM. To `Nc1cc(-c2ccccc2)ccc1NS(=O)(=O)c1cc(Cl)cc(Br)c1O` [I-57, N-(2-amino-4-phenylphenyl)-3-bromo-5-chloro-2-hydroxybenzene-1-sulfonamide] belongs 0.5 to 20 µM. As for `O=C(Nc1ccccc1)c1ccc(F)c(NS(=O)(=O)c2cc(Cl)cc(Cl)c2O)c1` [I-61, 3-((3,5-dichloro-2-hydroxyphenyl)sulfonamido)-4-fluoro-N-phenylbenzamide], the figure is 0.5 to 20 µM; as for `COC(=O)c1cc(Cl)c(OC)c(S(=O)(=O)Nc2cc(-c3ccccc3)c(F)cc2F)c1` [I-63, Methyl 3-chloro-5-(N-(4,6-difluoro-[1,1′-biphenyl]-3-yl)sulfamoyl)-4-methoxybenzoate], 0.5 to 20 µM. To `COc1ccc(-c2ccccc2)cc1NS(=O)(=O)c1cc(CC(=O)O)cc(Cl)c1O` [I-68, 2-[3-chloro-4-hydroxy-5-[(2-methoxy-5-phenylphenyl)sulfamoyl]phenyl]acetic Acid] belongs 0.5 to 20 µM; to `O=S(=O)(Nc1cc(F)ccc1F)c1cc(Cl)cc(Cl)c1O` [I-69, 3,5-dichloro-N-(2,5-difluorophenyl)-2-hydroxybenzene-1-sulfonamide], 0.5 to 20 µM; to `COc1c(Cl)cc(C(=O)O)cc1S(=O)(=O)Nc1cc(-c2ccccc2)ccc1F` [I-70, 3-chloro-5-([4-fluoro-[1,1-biphenyl]-3-yl]sulfamoyl)-4-methoxybenzoic Acid], 0.5 to 20 µM. `COc1ccc(-c2ccccc2)cc1NS(=O)(=O)c1cc(-c2nn[nH]n2)cc(Cl)c1OC` [I-71, 3-chloro-2-methoxy-N-(2-methoxy-5-phenylphenyl)-5-(2H-1,2,3,4-tetrazol-5-yl)benzene-1-sulfonamide]: the IC50 was in the range of 0.5 to 20 µM.

The values are drawn from patent US11555012B2 (Nimbus Artemis, Inc., priority 2018, dated 2023).
